Source: patent US11724995B2, “Decalin derivatives, a process for the preparation and pharmaceutical composition thereof” (Council of Scientific & Industrial Research, priority 2018, dated 2023)

System: Sickle cell red blood cells (SS RBCs)
Assay: Flow adhesion assay: sickle cell adhesion inhibition, RBCs perfused over TNF-α activated HUVEC monolayer
Type: cell-based
Settings: Homo sapiens; Table 1; SS RBCs treated with test compound at 100 μM, hypoxic condition 2 h; adhesion to TNF-α activated HUVEC monolayer under pulsatile flow; read-out: Inhibition (percentage of inhibition of cell adhesion)
Protocol: In still yet another embodiment, the present disclosure provides Sickle cell adhesion inhibition using Sickle cell red blood cells (SS RBCs). Flow adhesion assay are performed with commercial microfluidic-well plate and microfluidic flow adhesion system. Microfluidic channels are coated by perfusion (1 dyne/cm^2, 5 min) and incubated (37° C., 1 h) with 100 ng/ml Fibronectin. Channels are then perfused with complete media to remove unbound Fibronectin. Then a uniform monolayer of HUVEC cells is formed by profusing micro channels with the cell suspension at a pressure of 3 dyne/cm^2 for 5 sec and kept for 12 hours incubation to form monolayer. The HUVEC monolayer is activated 25 ng/ml of TNF-α and incubated (37° C., 4 h). Meanwhile Sickle cell red blood cell (SS RBCs) are treated with test compound at 100 μM concentration and incubated in hypoxic condition ([…], 5% CO2, 2 h). Flow condition for adhesion assay was pulsatile (1.67 Hz) flow (0.3 dyne/cm^2). For adhesion inhibition assay SS RBCs are diluted (2:50) in PBS. SS RBCs are perfused over HUVEC monolayer and incubated for 1 h. Unbound cells in micro channels are removed by perfusing complete media. Adherent cells are enumerated. Table 1 depicts percentage of inhibition when the compounds are tested at 100 μM concentration.
Flow adhesion assay were performed with commercial microfluidic-well plate and microfluidic flow adhesion system, Bio flux 200. Microfluidic channels were coated by perfusion (1 dyne/cm^2, 5 min) and incubated (37° C., 1 h) with 100 ng/ml Fibronectin. Channels were then perfused with complete media to remove unbound Fibronectin. Then a uniform monolayer of HUVEC cells was formed by profusing micro channels with the cell suspension at a pressure of 3 dyne/cm^2 for 5 sec and kept for 12 hours incubation to form monolayer. The HUVEC monolayer was activated 25 ng/ml of TNF-α and incubated (37° C., 4 h). Meanwhile RBCs were treated with test compound at 100 μM concentration and incubated in hypoxic condition ([…], 5% CO2, 2 h). Flow condition for adhesion assay was pulsatile (1.67 Hz) flow (0.3 dyne/cm^2). For adhesion inhibition assay RBCs were diluted (2:50) in PBS. RBCs were perfused over HUVEC monolayer and incubated for 1 h. Unbound cells in micro channels were removed by perfusing complete media. Adherent cells were enumerated.

Row | SMILES | inhibition at 100 µM
1 | C[C@@H]1CC=CC2=CC(=O)CC[C@]21C [Compound 24, (4aS,5R)-4a,5-dimethyl-4,4a,5,6-tetrahydronaphthalen-2(3H)-one] | 67%
2 | C[C@@H]1CC(=O)C=C2C=CC(=O)C[C@]21C [Compound 29, (8R,8aS)-8,8a-dimethyl-1,7,8,8a-tetrahydronaphthalene-2,6-dione] | 70%
3 | C[C@@H]1CC(=O)C=C2C[C@@H](O)[C@@H](O)C[C@]21C [Compound 28, (4R,4aS)-6,7-dihydroxy-4,4a-dimethyl-4,4a,5,6,7,8-hexahydronaphthalen-2(3H)-one] | 56%
4 | C[C@@H]1C(=O)C=CC2=CC(=O)CC[C@]21C [Compound 30, (1S,8aS)-1,8a-dimethyl-1,7,8,8a-tetrahydronaphthalene-2,6-dione] | 72%
5 | C[C@@H]1CC(=O)C=C2C=CCC[C@]21C [Compound 21, (4R,4aS)-4,4a-dimethyl-4,4a,5,6-tetrahydronaphthalen-2(3H)-one] | 78%
